Where two headings read alike, the source gives them in different places.
Assays:
[1] = target: T1, human GLP-1 receptor (hGLP-1R) (Homo sapiens, UniProt P43220); assay: GLP-1 receptor assay, method B (CRE-luciferase reporter, BHK cells, 384-well); assay type: cell-based
T1 construct: expressed in transfected cells

[2] = target: T2, human GIP receptor (hGIPR) (Homo sapiens, UniProt P48546); assay: GIP receptor assay, method B (CRE-luciferase reporter, BHK cells, 384-well); assay type: cell-based
T2 construct: expressed in transfected cells
T2 sequence (P48546 22-466): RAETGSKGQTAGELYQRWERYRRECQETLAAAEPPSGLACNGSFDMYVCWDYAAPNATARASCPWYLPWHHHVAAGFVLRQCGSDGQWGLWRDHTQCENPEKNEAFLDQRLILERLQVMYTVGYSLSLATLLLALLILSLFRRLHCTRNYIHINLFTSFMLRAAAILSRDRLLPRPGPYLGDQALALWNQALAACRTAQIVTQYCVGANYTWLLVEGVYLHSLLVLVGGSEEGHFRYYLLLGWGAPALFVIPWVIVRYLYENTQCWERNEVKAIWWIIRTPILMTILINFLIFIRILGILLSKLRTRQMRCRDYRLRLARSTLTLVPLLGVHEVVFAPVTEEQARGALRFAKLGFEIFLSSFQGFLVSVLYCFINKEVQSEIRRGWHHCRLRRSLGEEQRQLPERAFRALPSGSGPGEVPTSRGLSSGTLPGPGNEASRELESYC

[3] = target: T3, human amylin receptor (hAMYR3) (Homo sapiens, UniProt O60896+P30988); assay: Amylin receptor assay, method B (CRE-luciferase reporter, BHK cells); assay type: cell-based
T3 construct: host or cells: BHK cells (Hollex-1 line expressing hCTR(a) and CRE-Luc), further transfected with human RAMP3
Procedure, shortened: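 BHK cells with CRE-luciferase, co-expressing hAMYR3 and transfected with human RAMP3, seeded overnight, then exposed 3 h at 37 °C to compound. Buffer: phenol red-free DMEM, 10 mM HEPES, 1% ovalbumin, with 0% or 1% (w/v) HSA. Luminescence read after 30 min with steadylite Plus.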

[4] = Chemical stability assessment in formulation (UPLC-UV-MS purity loss at 37° C.); assay type: physicochemical; conditions: 8 mM phosphate buffer pH 7.4, 1 mg/mL, 2 weeks
Procedure, shortened: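 Degradation tracked by UPLC-UV-MS (formic acid/acetonitrile gradient) on samples drawn over 2 weeks at 37° C. Solutions were made at a 1 mg/mL target in 8 mM phosphate, pH 7.4, kept in sealed vials and frozen after sampling.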

[5] = system: Male Sprague Dawley (SD) rats; assay: Efficacy testing on appetite: acute food intake in ad libitum fed normal weight rats; assay type: in vivo, rat; conditions: single dose 10 nmol/kg
Excerpt: Male Sprague Dawley (SD) rats from Taconic, Denmark were used for the acute food intake experiments, wherein the principles of laboratory animal care were followed.
The rats arrived at least 10-14 days before the start of the experiment to allow acclimatization to experimental settings. During this period, the animals were handled (fixation by restrain in neck skin) at least 2 times. Immediately upon arrival, rats were changed to a reversed light cycle (dark from 11 am-11 pm) and were transferred to an automated food intake measuring system (HM2 system, MBRose; Faaborg, Denmark). […] To enable recording of individual food intake, rats were ID chipped. Three rats were housed in each cage. During the acclimatization period, in which the rats get used to the new light cycle and diet (LF 10% (D12450B), from Research Diets Inc.), the animals had free access to food and water. Since rats are normally active and consume most of their daily calories during the dark period, rats were dosed in the morning right before lights were turned off. Such a set-up results in the lowest data variation and highest test sensitivity. […] In each cage there were animals from three different treatment groups (to eliminate potential cage effects (e.g. cage malfunction) on primary readout: food intake). The rats were dosed once subcutaneously (s.c.) with the peptide of interest according to body weight (10 or 30 nmol/kg) in vehicle (0.5 ml/kg) using a NovoPen® (Novo Nordisk, Bagsvæed, Denmark).
The compounds of the invention were formulated (20 or 60 nmol/ml) in the following vehicle: 8 mM phosphate; 250 mM glycerol; 0.007% polysorbate 20, pH 7.4.
After dosing, the rats were returned to their home cages, where they continued to have ad libitum access to chow and water. The food consumption was recorded individually and continuously by the HM2 system from 0-72 h after test compound administration. Data obtained by the HM-2 system were stored in a HMBase SQL database (Firebird® relational database management system) and were processed by HM2Lab software (MBRose; Faaborg, Denmark) installed in an embedded computer. The feeding system is a highly sensitive system with a load resolution of 0.001 g.

[6] = hGLP-1R Potency, 1% HSA, EC50, methods B, in the presence of 1% HSA
[7] = method B, absence of HSA, read-out: hGLP-1R Potency, no HSA, EC50
[8] = hGIPR Potency, 1% HSA, EC50, methods B, in the presence of 1% HSA
[9] = method B, absence of HSA, read-out: hGIPR Potency, no HSA, EC50
[10] = hAMYR3 Potency, 1% HSA, EC50, methods B, in the presence of 1% HSA
[11] = method B, absence of HSA, read-out: hAMYR3 Potency, no HSA, EC50

T3 sequence (P30988 25-474): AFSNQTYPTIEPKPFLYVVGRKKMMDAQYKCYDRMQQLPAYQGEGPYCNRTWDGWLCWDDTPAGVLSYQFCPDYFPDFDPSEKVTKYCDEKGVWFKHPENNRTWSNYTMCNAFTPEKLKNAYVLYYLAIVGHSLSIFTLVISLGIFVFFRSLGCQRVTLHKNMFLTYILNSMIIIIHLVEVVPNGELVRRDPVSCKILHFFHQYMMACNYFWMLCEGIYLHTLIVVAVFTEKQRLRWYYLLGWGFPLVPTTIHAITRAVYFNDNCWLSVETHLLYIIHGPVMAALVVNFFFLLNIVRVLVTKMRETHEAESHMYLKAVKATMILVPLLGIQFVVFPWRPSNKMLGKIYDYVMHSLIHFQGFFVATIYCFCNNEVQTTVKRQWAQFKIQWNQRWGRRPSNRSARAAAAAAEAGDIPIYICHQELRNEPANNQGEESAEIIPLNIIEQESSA
T3 sequence (O60896 24-148): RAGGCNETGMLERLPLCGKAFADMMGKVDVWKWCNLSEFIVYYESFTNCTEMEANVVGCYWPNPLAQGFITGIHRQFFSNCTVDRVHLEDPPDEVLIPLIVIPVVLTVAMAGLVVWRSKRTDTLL
T1 sequence (P43220 24-463): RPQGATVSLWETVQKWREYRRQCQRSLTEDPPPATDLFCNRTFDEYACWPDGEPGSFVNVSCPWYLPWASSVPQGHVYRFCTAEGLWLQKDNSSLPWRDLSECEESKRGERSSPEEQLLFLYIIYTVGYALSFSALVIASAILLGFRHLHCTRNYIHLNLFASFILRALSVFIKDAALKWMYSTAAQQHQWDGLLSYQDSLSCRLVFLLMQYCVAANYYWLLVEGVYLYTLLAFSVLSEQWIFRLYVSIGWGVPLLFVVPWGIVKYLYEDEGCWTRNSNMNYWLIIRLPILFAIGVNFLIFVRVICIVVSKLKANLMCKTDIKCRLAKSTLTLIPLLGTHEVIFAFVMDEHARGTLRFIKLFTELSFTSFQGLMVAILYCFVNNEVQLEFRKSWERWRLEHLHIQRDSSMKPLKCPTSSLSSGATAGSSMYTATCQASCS

EC50 [1, 6] [nM]	EC50 [1, 7] [nM]	EC50 [2, 8] [pM]	EC50 [2, 9] [pM]	EC50 [3, 10] [nM]	EC50 [3, 11] [nM]	Purity loss per week at 37° C. [4] [%]	SMILES	Food intake (relative to vehicle) Day 1 ([5]; day 1 [0-24 hours]) [%]	Food intake (relative to vehicle) Day 2 ([5]; day 2 [24-48 hours]) [%]	Food intake (relative to vehicle) Day 3 ([5]; day 3 [48-72 hours]) [%]
0.0888	0.0251	7.64	2.39	0.537	0.0094	1.0	CC[C@H](C)[C@H](NC(=O)[C@H](CCC(=O)O)NC(=O)[C@H](CCC(=O)O)NC(=O)[C@H](CC(C)C)NC(=O)[C@H](CC(C)C)NC(=O)[C@@H](NC(=O)[C@H](CO)NC(=O)[C@H](Cc1ccc(O)cc1)NC(=O)[C@H](CC(=O)O)NC(=O)[C@H](CO)NC(=O)[C@@H](NC(=O)[C@H](Cc1ccccc1)NC(=O)[C@@H](NC(=O)CNC(=O)[C@H](CCC(=O)O)NC(=O)C(C)(C)NC(=O)[C@@H](N)Cc1ccc(O)cc1)[C@@H](C)O)[C@@H](C)O)[C@@H](C)CC)C(=O)N[C@@H](C)C(=O)N[C@@H](C)C(=O)N[C@@H](CCCNC(=N)N)C(=O)N[C@@H](CCC(=O)O)C(=O)N[C@@H](Cc1ccccc1)C(=O)N[C@H](C(=O)N[C@@H](CCC(=O)O)C(=O)N[C@@H](Cc1c[nH]c2ccccc12)C(=O)N[C@@H](CC(C)C)C(=O)N[C@@H](CC(C)C)C(=O)N[C@@H](C)C(=O)NCC(=O)NCC(=O)N1CCC[C@H]1C(=O)N[C@@H](CO)C(=O)N[C@@H](CO)C(=O)N[C@@H](CCC(=O)O)C(=O)N[C@@H](C)C(=O)NCC(=O)N[C@@H](CCC(N)=O)C(=O)N[C@@H](C)C(=O)N1CCC[C@H]1C(=O)NCC(=O)N[C@@H](CCC(N)=O)C(=O)N[C@@H](C)C(=O)N1CCC[C@H]1C(=O)NCC(=O)N[C@@H](C)C(=O)N[C@@H](CO)C(=O)N[C@@H](Cc1c[nH]cn1)C(=O)N[C@@H](CC(C)C)C(=O)N[C@@H](CO)C(=O)N[C@H](C(=O)N[C@@H](C)C(=O)N[C@@H](CCC(N)=O)C(=O)N[C@H](C(=O)N[C@@H](CCC(N)=O)C(=O)N[C@@H](CCCNC(=N)N)C(=O)N[C@@H](CC(C)C)C(=O)N[C@@H](CO)C(=O)N[C@@H](C)C(=O)N[C@@H](CCC(=O)O)C(=O)N[C@@H](CC(C)C)C(=O)N[C@@H](Cc1c[nH]cn1)C(=O)N[C@@H](CCCCNC(=O)COCCOCCNC(=O)COCCOCCNC(=O)CC[C@H](NC(=O)CCCCCCCCCCCCCCCCCCC(=O)O)C(=O)O)C(=O)N[C@@H](CC(C)C)C(=O)N[C@@H](C)C(=O)N[C@H](C(=O)N[C@@H](CCC(=O)O)C(=O)N1CCC[C@H]1C(=O)N[C@@H](CCCNC(=N)N)C(=O)N[C@H](C(=O)N[C@@H](CCC(=O)O)C(=O)N[C@H](C(=O)NCC(=O)N[C@@H](CO)C(=O)NCC(=O)N[C@@H](CO)C(=O)N1CCC[C@H]1C(N)=O)[C@@H](C)O)[C@@H](C)O)[C@@H](C)O)[C@@H](C)O)[C@@H](C)O)[C@@H](C)CC [Compound 165]	–	–	–
0.178	0.0299	23.8	3.66	0.798	0.0112	–	CC[C@H](C)[C@H](NC(=O)[C@H](CCC(=O)O)NC(=O)[C@H](CCC(=O)O)NC(=O)[C@H](CC(C)C)NC(=O)[C@H](CC(C)C)NC(=O)[C@@H](NC(=O)[C@H](CO)NC(=O)[C@H](Cc1ccc(O)cc1)NC(=O)[C@H](CC(=O)O)NC(=O)[C@H](CO)NC(=O)[C@@H](NC(=O)[C@H](Cc1ccccc1)NC(=O)[C@@H](NC(=O)CNC(=O)[C@H](CCC(=O)O)NC(=O)C(C)(C)NC(=O)[C@@H](N)Cc1ccc(O)cc1)[C@@H](C)O)[C@@H](C)O)[C@@H](C)CC)C(=O)N[C@@H](C)C(=O)N[C@@H](C)C(=O)N[C@@H](CCCNC(=N)N)C(=O)N[C@@H](CCC(=O)O)C(=O)N[C@@H](Cc1ccccc1)C(=O)N[C@H](C(=O)N[C@@H](CCC(=O)O)C(=O)N[C@@H](Cc1c[nH]c2ccccc12)C(=O)N[C@@H](CC(C)C)C(=O)N[C@@H](CC(C)C)C(=O)N[C@@H](C)C(=O)NCC(=O)NCC(=O)N1CCC[C@H]1C(=O)N[C@@H](CO)C(=O)N[C@@H](CO)C(=O)NCC(=O)N[C@@H](C)C(=O)NCC(=O)N[C@@H](C)C(=O)N[C@@H](CO)C(=O)N[C@@H](CCC(=O)O)C(=O)N[C@@H](CC(C)C)C(=O)N[C@@H](CO)C(=O)N[C@H](C(=O)N[C@@H](C)C(=O)N[C@@H](CCC(N)=O)C(=O)N[C@H](C(=O)N[C@@H](CCC(N)=O)C(=O)N[C@@H](CCCNC(=N)N)C(=O)N[C@@H](CC(C)C)C(=O)N[C@@H](CO)C(=O)N[C@@H](C)C(=O)N[C@@H](CCC(=O)O)C(=O)N[C@@H](CC(C)C)C(=O)N[C@@H](Cc1c[nH]cn1)C(=O)N[C@@H](CCCCNC(=O)COCCOCCNC(=O)COCCOCCNC(=O)CC[C@H](NC(=O)CCCCCCCCCCCCCCCCCCC(=O)O)C(=O)O)C(=O)N[C@@H](CC(C)C)C(=O)N[C@@H](C)C(=O)N[C@H](C(=O)N[C@@H](CC(C)C)C(=O)N1CCC[C@H]1C(=O)N[C@@H](CCCNC(=N)N)C(=O)N[C@H](C(=O)N[C@@H](CCC(=O)O)C(=O)N[C@H](C(=O)NCC(=O)N[C@@H](CO)C(=O)NCC(=O)N[C@@H](CO)C(=O)N1CCC[C@H]1C(N)=O)[C@@H](C)O)[C@@H](C)O)[C@@H](C)O)[C@@H](C)O)[C@@H](C)O)[C@@H](C)CC [Compound 176]	−12	2	7
